# Experimental data from US20220183279A1, “STABILIZED THIOKETONE FORMULATIONS” (priority 2019, published 2022).
# Assay: Effect of 5% by weight additives on prothioconazole in N,N-dimethyldecanamide, LED 350 nm, 24 hours
# Assay type: physicochemical
# Details: 0.4 g prothioconazole, 1.5 g N,N-dimethyldecanamide, 0.1 g stabiliser (5% by weight), 19 mW/cm^2, 24 hours, Comparison without additive 1539 ppm
# Protocol: 0.4 g of prothioconazole, 1.5 g of N,N-dimethyldecanamide and 0.1 g of the respective stabiliser were combined in a 20 ml vial. The reaction mixtures were irradiated in a photoreactor with stirring (magnetic stirrer) using LED lamps (wavelength 350 nm, 19 mW/cm^2) for 24 hours. Samples were then taken and the respective content of compound III was determined by HPLC chromatography (column: Agilent Zorbax Eclipse Plus C18, 50×4.6 mm, 1.8 μm, mobile phase: acetonitrile/0.1% by weight of aqueous phosphoric acid, gradient at 2 ml/min, temperature: 45° C., external standard).
row,Compound,Compound III (ppm)
1,O[C@H](CS)[C@H](O)CS (racemic) [DL-Dithiothreitol],749 ppm
2,O=C(O)C=Cc1ccc(O)cc1 [4-Hydroxycinnamic acid],2754 ppm
3,COc1ccc(O)cc1 [4-Methoxyphenol],1706 ppm
4,Cc1cc(O)cc2c1O[C@](C)(CCC[C@H](C)CCC[C@H](C)CCCC(C)C)CC2 [(+)-delta-Tocopherol],81 ppm
5,"Cc1cc(C(C)(C)C)c(O)c(C(C)(C)C)c1 [Butylated hydroxytoluene (BHT), Butylated hydroxytoluene]",576 ppm
6,O=C(O)/C=C/c1ccc(O)c(O)c1 [Caffeic acid],616 ppm
7,C=CCc1ccc(O)c(OC)c1 [Eugenol],580 ppm
8,COc1cc(/C=C/C(=O)O)ccc1O [Ferulic acid],2059 ppm
9,O=C(O)c1cc(O)c(O)c(O)c1 [Gallic acid],3700 ppm
10,O=C(O)CNC(=O)CCS [N-(Mercaptopropionyl)glycine],1102 ppm
11,CCCCC(CC)COC(=O)C(C#N)=C(c1ccccc1)c1ccccc1 (stereo not drawn) [Octocrylene],1377 ppm
12,(+/−)-alpha-Tocopherol,96 ppm
